Measurements taken from patent US9339471B2, “Long acting dual release product containing carbinoxamine and pseudoephedrine” (E5 PHARMA, LLC, priority 2007, dated 2016).
Where two headings read alike, the source gives them in different places. Marks after values point to notes of the source that are not given here.

How the values were obtained:
[1] = Literature 1 (Stockis et al. 1992): bioavailability of 8 mg aqueous solution and 8 mg retard capsule of carbinoxamine; settings: in vivo, normalized to 4 mg dose
Method: The pharmacokinetics of carbinoxamine maleate have been reported in the literature. Stockis et al., Arzneim.-Forsch 1992, 42(12):1478-81, studied the bioavailability of an 8 mg aqueous solution of carbinoxamine and an 8 mg retard capsule of carbinoxamine.
(§1) A single dose fasted bioavailability study was undertaken using four milligram immediate release carbinoxamine maleate tablets formulated in an immediate release format. Samples were taken over a forty eight hours period after administration of the drug, and the first meal was allowed to be ingested four hours after administration. Table 3 compares the observed pharmacokinetics from this test to those observed by Stockis et al. in Arzneim.-Forsch 1992, 42(12):1478-81, and Stockis et al. in Arzneim.-Forsch 1995, 45(9) 1009-1012.

[2] = cited from earlier work; for AUC(0-t): AUC0-6
[3] = cited from earlier work; for AUC(0-t): AUC0-24
[4] = Single dose fasted bioavailability study, 4 mg immediate release carbinoxamine maleate tablet; assay type: in vivo; set-up: Plasma concentration of carbinoxamine: unit not given here; settings: for Cmax / Tmax / half-life / AUC(0-t) / MRT: 4 mg
Description: as §1
FIG. 1 is a mean plasma concentration-time profile of the carbinoxamine after administering the immediate release tablet in the fasted state from time 0 to time 48 hours. Graph (A) is the linear ordinate; graph (B) is the log-linear ordinate.

[5] = po, Literature 1, Retard capsule 8 mg
[6] = Literature 1, Aqueous solution 8 mg
[7] = 4 mg retard capsule, single administration
[8] = 4 mg retard capsule, successive administrations
[9] = Literature 2, Aqueous solution 4 mg
[10] = Literature 2, Retard capsule 4 mg
[11] = Literature 2, Retard capsule SS 4 mg, steady-state (q12 h)
[12] = Literature 1, Retard capsule 8 mg
[13] = human, plasma, po, Our study, Tablet 4 mg
[14] = human, plasma, po, fasted, Mean
[15] = human, plasma, po, fasted, subject 101
[16] = human, plasma, po, fasted, subject 102
[17] = human, plasma, po, fasted, subject 103

Structure (SMILES): CN(C)CCOC(c1ccc(Cl)cc1)c1ccccn1 (centres unmarked) [carbinoxamine, 2-[(4-chlorophenyl)-2-pyridinylmethoxy]-N,N-dimethylethanamine (Z)-2-butenedioate (1:1)]
- AUC(0-t) [1, 5]: 119 ng·h/mL
- Cmax [1, 5]: 8.45 ng/mL
- AUC(0-t) [1, 6]: 143 ng·h/mL
- Cmax [1, 6]: 12 ng/mL
- Cmax [2, 7]: 4.5 ng/mL
- Tmax [2, 7]: 6.2 h
- half life [2, 7]: 30 h
- Cmax [2, 8]: 13.5 ng/mL
- Tmax [2, 8]: 4.8 h
- half life [2, 8]: 22 h
- AUC(0-t) [2, 9]: 64^c ng/ml * h
- Cmax [2, 9]: 6.5 ng/mL
- T1/2 [2, 9]: 15 h
- Tmax [2, 9]: 2.6 h
- AUC(0-t) [2, 10]: 57^c ng/ml * h
- Cmax [2, 10]: 4.5 ng/mL
- T1/2 [2, 10]: 30 h
- Tmax [2, 10]: 6.2 h
- AUC0-* · [2, 11]: 125 ng·h/mL
- Cmax [2, 11]: 13.5 ng/mL
- T1/2 [2, 11]: 22 h
- Tmax [2, 11]: 4.8 h
- Cmax ([3]; 8 mg aqueous solution): 24 ng/mL
- half-life ([3]; 8 mg aqueous solution): 10.6 h
- Cmax ([3]; 8 mg retard capsule): 16.9 ng/mL
- Tmax ([3]; 8 mg retard capsule): 8 h
- half-life ([3]; 8 mg retard capsule): 14.5 h
- AUC(0-t) [3, 6]: 386^b ng/ml * h
- Cmax [3, 6]: 24 ng/mL
- T1/2 [3, 6]: 10.6 h
- AUC(0-t) [3, 12]: 238^b ng/ml * h
- Cmax [3, 12]: 16.9 ng/mL
- T1/2 [3, 12]: 14.5 h
- Plasma concentration of carbinoxamine ([4]; fasted, 0 h, subject 101T): blq
- Plasma concentration of carbinoxamine ([4]; fasted, 0 h, subject 102T): blq
- Plasma concentration of carbinoxamine ([4]; fasted, 0 h, subject 103T): blq
- Plasma concentration of carbinoxamine ([4]; fasted, 0.5 h, T-Mean): 315.41
- Plasma concentration of carbinoxamine ([4]; fasted, 0.5 h, subject 101T): 434.78
- Plasma concentration of carbinoxamine ([4]; fasted, 0.5 h, subject 102T): 459.42
- Plasma concentration of carbinoxamine ([4]; fasted, 0.5 h, subject 103T): 52.04
- Plasma concentration of carbinoxamine ([4]; fasted, 1 h, T-Mean): 4153.31
- Plasma concentration of carbinoxamine ([4]; fasted, 1 h, subject 101T): 5908.19
- Plasma concentration of carbinoxamine ([4]; fasted, 1 h, subject 102T): 4949.36
- Plasma concentration of carbinoxamine ([4]; fasted, 1 h, subject 103T): 1602.38
- Plasma concentration of carbinoxamine ([4]; fasted, 2 h, T-Mean): 6406.31
- Plasma concentration of carbinoxamine ([4]; fasted, 2 h, subject 101T): 6488.14
- Plasma concentration of carbinoxamine ([4]; fasted, 2 h, subject 102T): 5684.72
- Plasma concentration of carbinoxamine ([4]; fasted, 2 h, subject 103T): 7046.07
- Plasma concentration of carbinoxamine ([4]; fasted, 3 h, T-Mean): 7062.72
- Plasma concentration of carbinoxamine ([4]; fasted, 3 h, subject 101T): 8022.80
- Plasma concentration of carbinoxamine ([4]; fasted, 3 h, subject 102T): 6592.16
- Plasma concentration of carbinoxamine ([4]; fasted, 3 h, subject 103T): 6573.21
- Plasma concentration of carbinoxamine ([4]; fasted, 4 h, T-Mean): 6647.30
- Plasma concentration of carbinoxamine ([4]; fasted, 4 h, subject 101T): 7860.85
- Plasma concentration of carbinoxamine ([4]; fasted, 4 h, subject 102T): 6236.91
- Plasma concentration of carbinoxamine ([4]; fasted, 4 h, subject 103T): 5854.14
- Plasma concentration of carbinoxamine ([4]; fasted, 5 h, T-Mean): 6515.83
- Plasma concentration of carbinoxamine ([4]; fasted, 5 h, subject 101T): 7726.57
- Plasma concentration of carbinoxamine ([4]; fasted, 5 h, subject 102T): 6649.03
- Plasma concentration of carbinoxamine ([4]; fasted, 5 h, subject 103T): 5171.89
- Plasma concentration of carbinoxamine ([4]; fasted, 6 h, T-Mean): 5903.78
- Plasma concentration of carbinoxamine ([4]; fasted, 6 h, subject 101T): 7251.86
- Plasma concentration of carbinoxamine ([4]; fasted, 6 h, subject 102T): 6097.18
- Plasma concentration of carbinoxamine ([4]; fasted, 6 h, subject 103T): 4362.30
- Plasma concentration of carbinoxamine ([4]; fasted, 8 h, T-Mean): 5510.70
- Plasma concentration of carbinoxamine ([4]; fasted, 8 h, subject 101T): 6849.38
- Plasma concentration of carbinoxamine ([4]; fasted, 8 h, subject 102T): 5707.15
- Plasma concentration of carbinoxamine ([4]; fasted, 8 h, subject 103T): 3975.57
- Plasma concentration of carbinoxamine ([4]; fasted, 12 h, T-Mean): 4292.77
- Plasma concentration of carbinoxamine ([4]; fasted, 12 h, subject 101T): 5821.63
- Plasma concentration of carbinoxamine ([4]; fasted, 12 h, subject 102T): 4387.40
- Plasma concentration of carbinoxamine ([4]; fasted, 12 h, subject 103T): 2669.29
- Plasma concentration of carbinoxamine ([4]; fasted, 24 h, T-Mean): 2144.60
- Plasma concentration of carbinoxamine ([4]; fasted, 24 h, subject 101T): 2632.77
- Plasma concentration of carbinoxamine ([4]; fasted, 24 h, subject 102T): 2395.51
- Plasma concentration of carbinoxamine ([4]; fasted, 24 h, subject 103T): 1405.53
- Plasma concentration of carbinoxamine ([4]; fasted, 36 h, T-Mean): 1371.30
- Plasma concentration of carbinoxamine ([4]; fasted, 36 h, subject 101T): 1541.30
- Plasma concentration of carbinoxamine ([4]; fasted, 36 h, subject 102T): 1516.80
- Plasma concentration of carbinoxamine ([4]; fasted, 36 h, subject 103T): 1055.79
- Plasma concentration of carbinoxamine ([4]; fasted, 48 h, T-Mean): 876.29
- Plasma concentration of carbinoxamine ([4]; fasted, 48 h, subject 101T): 1102.33
- Plasma concentration of carbinoxamine ([4]; fasted, 48 h, subject 102T): 1003.18
- Plasma concentration of carbinoxamine ([4]; fasted, 48 h, subject 103T): 528.37
- Cmax [4, 13]: 7.2 ng/mL
- Tmax [4, 13]: 3.3 h
- half-life [4, 13]: 18.3 h
- AUC(0-t) [4, 14]: 161 ng·h/mL
- Cmax [4, 14]: 7.24 ng/mL
- MRT [4, 14]: 24.1 h
- Tmax [4, 14]: 3.33 h
- half-life [4, 14]: 18.4 h
- AUC(0-t) ([4]; human, plasma, po, fasted, Mean, first AUC column): 137 ng·h/mL
- Cmax [4, 15]: 8.02 ng/mL
- MRT [4, 15]: 24.7 h
- Tmax [4, 15]: 3 h
- half-life [4, 15]: 19.1 h
- AUC(0-t) ([4]; human, plasma, po, fasted, subject 101, first AUC column): 169 ng·h/mL
- AUC(0-t) ([4]; human, plasma, po, fasted, subject 101, second AUC column): 200 ng·h/mL
- Cmax [4, 16]: 6.65 ng/mL
- MRT [4, 16]: 25.9 h
- Tmax [4, 16]: 5 h
- half-life [4, 16]: 19.1 h
- AUC(0-t) ([4]; human, plasma, po, fasted, subject 102, first AUC column): 143 ng·h/mL
- AUC(0-t) ([4]; human, plasma, po, fasted, subject 102, second AUC column): 171 ng·h/mL
- Cmax [4, 17]: 7.05 ng/mL
- MRT [4, 17]: 21.7 h
- Tmax [4, 17]: 2 h
- half-life [4, 17]: 16.8 h
- AUC(0-t) ([4]; human, plasma, po, fasted, subject 103, first AUC column): 98.4 ng·h/mL
- AUC(0-t) ([4]; human, plasma, po, fasted, subject 103, second AUC column): 111 ng·h/mL
- AUC ([4]; human, plasma, po, Our study, Tablet 4 mg, read-out: AUC0-* ·): 161 ng·h/mL
- AUC(0-t) ([4]; plasma, po, Our study, Tablet 4 mg, AUC0-48): 137 ng·h/mL
